# From patent US10654848B1, “Neutrophil inflammation inhibitor and uses thereof” (Chang Gung University of Science and Technology, priority 2018, dated 2020)
# Counter-ions that a name gives are not always drawn.
row,SMILES,melting point [°C]
1,"Cn1nc(N)c2c(Nc3ccc(F)cc3)nc3ccccc3c21 (as salt: salt) [Compound 4, 4-(4-Fluoroanilino)-1-methyl-1H-pyrazolo[4,3-c]quinolin-3-amine]",218 to 219
2,"COc1cccc(Nc2nc3ccccc3c3c2c(N)nn3C)c1 (as salt: salt) [Compound 6, 4-(3-Methoxyanilino)-1-methyl-1H-pyrazolo[4,3-c]quinolin-3-amine]",284 to 286
3,"COc1ccc(Nc2nc3ccccc3c3c2c(N)nn3C)cc1 (as salt: salt) [Compound 7, 4-(4-Methoxyanilino)-1-methyl-1H-pyrazolo[4,3-c]quinolin-3-amine]",193 to 194
4,"COc1cc(Nc2nc3ccccc3c3c2c(N)nn3C)cc(OC)c1OC (as salt: salt) [Compound 8, 4-(3,4,5-Trimethoxyanilino)-1-methyl-1H-pyrazolo[4,3-c]quinolin-3-amine]",219 to 220
5,"CSc1ccc(Nc2nc3ccccc3c3c2c(N)nn3C)cc1 (as salt: salt) [Compound 9, 1-Methyl-4-(4-methylthioanilino)-1H-pyrazolo[4,3-c]quinolin-3-amine]",233 to 235
6,"Cn1nc(N)c2c(Nc3ccccc3O)nc3ccccc3c21 (as salt: salt) [Compound 11, 4-(2-Hydroxyanilino)-1-methyl-1H-pyrazolo[4,3-c]quinolin-3-amine]",233 to 235
7,"Cn1nc(N)c2c(Nc3cccc(O)c3)nc3ccccc3c21 (as salt: salt) [Compound 12, 4-(3-Hydroxyanilino)-1-methyl-1H-pyrazolo[4,3-c]quinolin-3-amine]",190 to 191
8,"Cn1nc(N)c2c(Nc3ccc(O)cc3)nc3ccccc3c21 (as salt: salt) [Compound 13, 4-(4-Hydroxyanilino)-1-methyl-1H-pyrazolo[4,3-c]quinolin-3-amine]",320 to 322
9,"Cn1nc(N)c2c(Nc3ccc(C(F)(F)F)cc3)nc3ccccc3c21 (as salt: salt) [Compound 14, 4-(4-Trifluoromethylanilino)-1-methyl-1H-pyrazolo[4,3-c]quinolin-3-amine]",219 to 220
10,"Cn1nc(N)c2c(Nc3ccc(C(=O)O)cc3)nc3ccccc3c21 (as salt: salt) [Compound 15, 4-[(3-Amino-1-methyl-1H-pyrazolo[4,3-c]quinolin-4-yl)amino]benzoic acid]",325 to 326
11,"Cn1nc(N)c2c(Nc3ccccc3S)nc3ccccc3c21 (as salt: salt) [Compound 16, 2-[(3-amino-1-methyl-1H-pyrazolo[4,3-c]quinolin-4-yl)amino]benzenethiol]",235 to 236
12,"Cn1nc(N)c2c(Nc3ccc(Cl)cc3)nc3ccccc3c21 (as salt: salt) [Compound 17, 4-(4-Chloroanilino)-1-methyl-1H-pyrazolo[4,3-c]quinolin-3-amine]",281 to 282
13,"Cc1ccc(Nc2nc3ccccc3c3c2c(N)nn3C)cc1 (as salt: salt) [Compound 18, 4-(4-Methylanilino)-1-methyl-1H-pyrazolo[4,3-c]quinolin-3-amine]",253 to 255
14,"Nc1noc2c1c(Nc1ccccc1)nc1ccccc12 (as salt: salt) [Compound 19, 4-Anilinoisoxazolo[4,5-c]quinolin-3-amine]",266 to 267
15,"Nc1noc2c1c(Nc1ccc(F)cc1)nc1ccccc12 (as salt: salt) [Compound 20, 4-(4-Fluoroanilino)isoxazolo[4,5-c]quinolin-3-amine]",271 to 272
16,"COc1ccccc1Nc1nc2ccccc2c2onc(N)c12 (as salt: salt) [Compound 21, 4-(2-Methoxyanilino)isoxazolo[4,5-c]quinolin-3-amine]",261 to 262
17,"COc1cccc(Nc2nc3ccccc3c3onc(N)c23)c1 (as salt: salt) [Compound 22, 4-(3-Methoxyanilino)isoxazolo[4,5-c]quinolin-3-amine]",262 to 263
